From patent US9128079B2, “Methods of using lung or bronchial epithelial cells to identify bitter taste modulators” (The Coca-Cola Company, priority 2011, dated 2015)

Tests used:
[1] = test system: 16HBE cells; experiment: FLIPR calcium flux assay, intracellular calcium release on tastant addition; type: cell-based, human; conditions: increasing concentrations of tastant, calcium-sensitive dye, FIG. 2
Method: Calcium flux assays were performed as previously described in Strachan et al., “Ribosomal S6 kinase 2 directly phosphorylates the 5-hydroxytryptamine 2A (5-HT2A) serotonin receptor, thereby modulating 5-HT2A signaling,” J Biol Chem 284:5557-5573 (2009). 16-HBE cells were trypsinized, counted, and seeded onto clear-bottomed 96 well plates (Greiner Bio-One; Monroe, N.C.) pre-coated with poly-D-lysine, at a density of […]. After a 24 hour incubation, media was removed and replaced with a Ca^2+ assay buffer (20 mM HEPES, lx HBSS, 2.5 mM probenecid, and Ca^2+ assay dye, pH 7.4) (FLIPR® Calcium Assay Kit; Molecular Device Corp, Sunnyvale, Calif.). After a 1-hour incubation at 37° C., during which the cells were allowed to take up the dye, fluorescence responses of cells were measured with a FLIPRTETRA (Molecular Device Corp; Sunnyvale, Calif.) device upon the addition of variable concentrations of tastant, or vehicle, in the presence of assay buffer (20 mM HEPES, pH 7.4, 1× Hanks Balanced Salt [Invitrogen; Carlsbad, Calif.] and 2.5 mM probenecid). After data acquisition, a subsequent addition of […] was injected into each well, and fluorescence was measured again. […] The cells were loaded with fluorescent calcium-sensitive dye, treated with a variety of tastants, and monitored for intracellular calcium release with a FLIPR imaging device.

[2] = test system: 16HBE cells; experiment: GloSensor cAMP assay, inhibition of forskolin-stimulated cAMP production; type: cell-based, human; conditions: increasing concentrations, GloSensor luminescence, FIG. 3
Method: Also shown is that overexpression of the wildtype form of RGS21 blunts bitter signaling and increases cAMP levels. Inhibition of forskolin-stimulated cAMP production by treatment with indicated concentrations of denatonium-B was determined 24 hours post-transfection by detection of Promega's cAMP GloSensor-dependent luminescence. Twenty-four hours post-transfection, cells were re-plated on poly-D-lysine-treated, clear-bottom, white 384-well plates at a density of 15,000 cells/well. Forty-eight hours post-transfection, culture medium was aspirated and cells were washed once with assay medium (DMEM (without FBS or phenol), 15 mM HEPES pH 7.4) before being incubated for 2 hours with 20 ill/well of equilibration medium (assay medium with 4% GloSensor™ substrate (Promega; Madison, Wis.)). After two hours, 10 μl of 3× final concentration denatonium benzoate (diluted in 3 μM forskolin-containing assay medium) was added to each well and allowed to incubate for 10 minutes before GloSensor™ emission was read on a MicroBeta Plate Counter (PerkinElmer; Waltham, Mass.). Before plotting, luminescence counts were normalized to 100% maximal response for each condition to account for variability in GloSensor™ expression, transfection efficiency, and the exact number of cells per well.

CC[N+](CC)(CC(=O)Nc1c(C)cccc1C)Cc1ccccc1 [denatonium-B, denatonium benzoate]
intracellular calcium response of 16HBE cells [1]: increase in intracellular calcium
intracellular cyclic AMP concentration in 16HBE cells [2]: decreasing the concentration of intracellular cyclic AMP
